Data on 1 molecule can be found in ChEMBL document CHEMBL5154941, “Structural Modifications of Nimodipine Lead to Novel PDE1 Inhibitors with Anti-pulmonary Fibrosis Effects” (J Med Chem, 2022).

Series [1] relates to Rattus norvegicus. The experiment in a line: Antifibrotic activity in bleomycin-induced Sprague-Dawley rat pulmonary fibrosis model assessed as decrease in enhanced pause at 2.5 to 5 mg/kg, ip administered daily for 28 days. It is filed as functional, organism-based. To be noted: dose 2.5-5 mg/kg, time 28.0 day.
Series [2] addresses 3',5'-cyclic-AMP phosphodiesterase 4D (Homo sapiens, UniProt Q08499). The experiment in a line: Inhibition of PDE4D2 (86 to 413 residues) (unknown origin) expressed in Escherichia coli BL21 [3H]-cAMP as substrate measured for 15 mins by liquid scintillation counter method.
Series [3] concerns the target Dual specificity calcium/calmodulin-dependent 3',5'-cyclic nucleotide phosphodiesterase 1A (Homo sapiens, UniProt P54750). The experiment in a line: Inhibition of PDE1A (142 to 552 residues) (unknown origin) expressed in Escherichia coli BL21 measured for 15 mins by liquid scintillation counter method.
Series [4] has as its target Dual specificity calcium/calmodulin-dependent 3',5'-cyclic nucleotide phosphodiesterase 1B (Homo sapiens, UniProt Q01064). Nature of the series: Inhibition of PDE1B (10 to 487 residues) (unknown origin) expressed in Escherichia coli BL21 using [3H]-cGMP as substrate measured for 15 mins by liquid scintillation counter method.
Series [5] deals with cGMP-inhibited 3',5'-cyclic phosphodiesterase 3A (Homo sapiens, UniProt Q14432). The experiment in a line: Inhibition of PDE3A (679 to 1087 residues) (unknown origin) expressed in Escherichia coli BL21 using [3H]-cAMP as substrate measured for 15 mins by liquid scintillation counter method.
Chain of cGMP-inhibited 3',5'-cyclic phosphodiesterase 3A (Q14432 whole entry, the tested form may be a part): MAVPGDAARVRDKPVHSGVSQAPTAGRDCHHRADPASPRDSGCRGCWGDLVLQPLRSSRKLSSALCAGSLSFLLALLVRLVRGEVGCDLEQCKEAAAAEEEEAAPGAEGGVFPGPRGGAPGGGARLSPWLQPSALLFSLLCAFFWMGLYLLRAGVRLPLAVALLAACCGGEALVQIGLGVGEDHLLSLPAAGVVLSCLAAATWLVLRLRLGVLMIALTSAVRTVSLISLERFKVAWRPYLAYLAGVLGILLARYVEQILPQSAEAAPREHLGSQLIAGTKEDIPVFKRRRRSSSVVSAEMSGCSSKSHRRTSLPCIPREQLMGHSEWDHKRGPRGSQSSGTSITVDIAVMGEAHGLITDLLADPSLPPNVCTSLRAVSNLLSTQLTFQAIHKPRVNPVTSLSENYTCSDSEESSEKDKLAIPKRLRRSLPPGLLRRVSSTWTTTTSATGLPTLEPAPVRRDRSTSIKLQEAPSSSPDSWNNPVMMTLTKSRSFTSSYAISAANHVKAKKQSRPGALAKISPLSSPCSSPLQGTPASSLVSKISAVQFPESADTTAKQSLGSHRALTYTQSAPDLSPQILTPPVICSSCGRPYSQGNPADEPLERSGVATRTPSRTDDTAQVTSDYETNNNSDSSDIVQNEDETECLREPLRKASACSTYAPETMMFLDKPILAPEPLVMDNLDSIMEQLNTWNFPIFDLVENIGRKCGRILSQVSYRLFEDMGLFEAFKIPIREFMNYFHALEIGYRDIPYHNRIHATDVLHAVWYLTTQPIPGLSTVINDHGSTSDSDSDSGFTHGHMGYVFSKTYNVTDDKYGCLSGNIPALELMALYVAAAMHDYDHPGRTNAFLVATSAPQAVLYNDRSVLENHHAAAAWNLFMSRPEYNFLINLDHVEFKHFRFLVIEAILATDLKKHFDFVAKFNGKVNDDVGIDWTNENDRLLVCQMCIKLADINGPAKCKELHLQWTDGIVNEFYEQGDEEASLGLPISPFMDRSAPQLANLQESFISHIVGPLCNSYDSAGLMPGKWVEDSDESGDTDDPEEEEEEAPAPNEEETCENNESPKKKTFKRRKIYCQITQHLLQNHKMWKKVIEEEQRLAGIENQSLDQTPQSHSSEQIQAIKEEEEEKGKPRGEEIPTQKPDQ
Series [6] has as its target T1, High affinity cAMP-specific and IBMX-insensitive 3',5'-cyclic phosphodiesterase 8A (Homo sapiens, UniProt O60658). Nature of the series: Inhibition of PDE8A1 (480 to 820 residues) (unknown origin) expressed in Escherichia coli BL21 using [3H]-cAMP as substrate measured for 15 mins by liquid scintillation counter method.
A short description of series [7]: Clearance in Sprague-Dawley rat at 5 mg/kg, iv. In kind it is ADME, organism-based. To be noted: in vivo.
The subject of series [8] is Rattus norvegicus. Nature of the series: Antifibrotic activity in bleomycin-induced Sprague-Dawley rat lung fibrosis model assessed as decrease in collagen deposition at 2.5 to 5 mg/kg, ip administered daily for 28 days by Masson's trichrome staining based analysis. To be noted: dose 2.5-5 mg/kg, time 28.0 day. In kind it is functional, organism-based.
Series [9] deals with Rattus norvegicus. The experiment in a line: Antifibrotic activity in bleomycin-induced Sprague-Dawley rat lung fibrosis model assessed as decrease in alpha-smooth muscle actin level at 2.5 to 5 mg/kg, ip administered daily for 28 days by Western blot analysis. To be noted: dose 2.5-5 mg/kg, time 28.0 day. It is filed as functional, organism-based. For orientation: In western blotting, separated proteins are transferred to a membrane and probed.

In series [10] the test system is Rattus norvegicus. The experiment in a line: Antifibrotic activity in bleomycin-induced Sprague-Dawley rat lung fibrosis model assessed as decrease in collagen I level at 2.5 to 5 mg/kg, ip administered daily for 28 days by Western blot analysis. It is filed as functional, organism-based. To be noted: dose 2.5-5 mg/kg, time 28.0 day.
The test system of series [11] is Rattus norvegicus. Nature of the series: Antifibrotic activity in bleomycin-induced Sprague-Dawley rat lung fibrosis model assessed as decrease in fibronectin level at 2.5 to 5 mg/kg, ip administered daily for 28 days by Western blot analysis. The following applies: dose 2.5-5 mg/kg, time 28.0 day. It is filed as functional, organism-based.
Series [12] deals with Rattus norvegicus. The experiment in a line: Antifibrotic activity in bleomycin-induced Sprague-Dawley rat lung fibrosis model assessed as increase in cAMP level at 2.5 to 5 mg/kg, ip administered daily for 28 days by ELISA analysis. It is filed as functional, organism-based. To be noted: dose 2.5-5 mg/kg, time 28.0 day. On the technique in general: Changes in cAMP serve as a functional read-out for many G protein-coupled receptors.

The next series concerns HLF. The experiment in a line: Antifibrotic activity in TGF-beta induced HLF cell assessed as suppression of alpha-SMA level at 10 uM incubated for 48 hrs by Western blot analysis. It is filed as functional, cell-based. To be noted: Homo sapiens.
For series [13], the system named is Rattus norvegicus. The experiment in a line: Antifibrotic activity in bleomycin-induced Sprague-Dawley rat pulmonary fibrosis model assessed as decrease in number of lung foci at 5 mg/kg, ip administered daily for 28 days by H&E staining based histopathological analysis. In kind it is functional, organism-based. The following applies: time 28.0 day.
The target in a further series is Cytochrome P450 2C9 (Homo sapiens, UniProt P11712). The experiment in a line: Inhibition of CYP2C9 in human liver microsomes at 25 uM in the presence of NADPH. It is filed as ADME, Microsome.
Chain of Cytochrome P450 2C9 (P11712 whole entry, the tested form may be a part): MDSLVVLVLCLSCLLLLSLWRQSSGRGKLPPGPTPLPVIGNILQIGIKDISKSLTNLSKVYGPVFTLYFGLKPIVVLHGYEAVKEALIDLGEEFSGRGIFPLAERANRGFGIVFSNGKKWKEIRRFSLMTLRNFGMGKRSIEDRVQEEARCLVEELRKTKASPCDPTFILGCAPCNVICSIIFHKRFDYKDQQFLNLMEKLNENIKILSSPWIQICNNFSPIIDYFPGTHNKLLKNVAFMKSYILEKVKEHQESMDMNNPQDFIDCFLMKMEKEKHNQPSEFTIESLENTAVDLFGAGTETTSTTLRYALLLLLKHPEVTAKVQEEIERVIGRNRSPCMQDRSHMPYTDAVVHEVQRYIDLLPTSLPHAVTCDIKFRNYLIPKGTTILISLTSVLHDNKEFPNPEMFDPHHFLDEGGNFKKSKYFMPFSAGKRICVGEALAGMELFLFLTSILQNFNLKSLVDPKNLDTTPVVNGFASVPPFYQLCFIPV
Series [14] has as its target T1, High affinity cAMP-specific and IBMX-insensitive 3',5'-cyclic phosphodiesterase 8A. The experiment in a line: Inhibition of PDE8A (480 to 820 residues) (unknown origin) expressed in Escherichia coli BL21 using [3H]-cAMP as substrate at 10000 nM measured for 15 mins by liquid scintillation counter method.
For series [15], the target named is High affinity cGMP-specific 3',5'-cyclic phosphodiesterase 9A (Homo sapiens, UniProt O76083). Nature of the series: Inhibition of PDE9A (181 to 506 residues) (unknown origin) expressed in Escherichia coli BL21 using [3H]-cGMP as substrate at 10000 nM measured for 15 mins by liquid scintillation counter method.
Chain of High affinity cGMP-specific 3',5'-cyclic phosphodiesterase 9A (O76083 whole entry, the tested form may be a part): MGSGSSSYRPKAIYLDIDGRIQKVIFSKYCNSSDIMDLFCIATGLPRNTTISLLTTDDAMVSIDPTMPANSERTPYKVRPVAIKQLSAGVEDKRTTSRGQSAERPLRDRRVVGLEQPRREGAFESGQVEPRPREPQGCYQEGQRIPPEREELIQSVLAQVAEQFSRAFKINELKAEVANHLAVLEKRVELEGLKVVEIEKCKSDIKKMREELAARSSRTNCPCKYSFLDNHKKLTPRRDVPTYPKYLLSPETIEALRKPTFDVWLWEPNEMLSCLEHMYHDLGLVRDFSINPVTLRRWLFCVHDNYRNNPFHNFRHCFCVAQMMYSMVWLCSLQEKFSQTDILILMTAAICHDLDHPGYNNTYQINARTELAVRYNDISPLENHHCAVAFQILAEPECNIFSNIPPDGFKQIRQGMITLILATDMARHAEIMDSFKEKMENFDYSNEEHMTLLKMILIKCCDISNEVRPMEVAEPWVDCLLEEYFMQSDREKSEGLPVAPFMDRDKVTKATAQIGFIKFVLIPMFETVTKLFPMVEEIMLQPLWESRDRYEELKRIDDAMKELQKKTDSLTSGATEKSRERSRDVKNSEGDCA

Calls of active or inactive are those of the source. No cut-off for these calls is given here.

T1 sequence (O60658 whole entry, the tested form may be a part): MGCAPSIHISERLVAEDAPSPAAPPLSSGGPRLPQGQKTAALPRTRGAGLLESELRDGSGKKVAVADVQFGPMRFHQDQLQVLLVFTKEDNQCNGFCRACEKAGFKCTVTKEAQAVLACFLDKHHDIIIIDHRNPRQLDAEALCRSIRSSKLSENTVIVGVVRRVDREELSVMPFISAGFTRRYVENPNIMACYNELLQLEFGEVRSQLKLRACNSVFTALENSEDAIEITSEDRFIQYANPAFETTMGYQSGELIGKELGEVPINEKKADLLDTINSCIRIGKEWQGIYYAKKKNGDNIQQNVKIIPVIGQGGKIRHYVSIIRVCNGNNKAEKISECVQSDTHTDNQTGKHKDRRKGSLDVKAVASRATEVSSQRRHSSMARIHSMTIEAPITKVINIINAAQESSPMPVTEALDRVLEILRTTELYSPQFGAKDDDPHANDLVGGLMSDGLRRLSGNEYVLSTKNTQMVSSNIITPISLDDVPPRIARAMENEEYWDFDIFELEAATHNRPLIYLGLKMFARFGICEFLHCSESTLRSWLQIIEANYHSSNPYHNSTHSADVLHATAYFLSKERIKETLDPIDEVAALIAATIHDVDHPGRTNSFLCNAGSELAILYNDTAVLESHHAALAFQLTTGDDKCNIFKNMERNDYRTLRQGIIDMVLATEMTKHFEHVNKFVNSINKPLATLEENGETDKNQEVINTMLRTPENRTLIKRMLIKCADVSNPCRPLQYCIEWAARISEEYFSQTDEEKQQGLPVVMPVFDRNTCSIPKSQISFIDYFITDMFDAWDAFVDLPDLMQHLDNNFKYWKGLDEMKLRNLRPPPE
Chain of Dual specificity calcium/calmodulin-dependent 3',5'-cyclic nucleotide phosphodiesterase 1A (P54750 whole entry, the tested form may be a part): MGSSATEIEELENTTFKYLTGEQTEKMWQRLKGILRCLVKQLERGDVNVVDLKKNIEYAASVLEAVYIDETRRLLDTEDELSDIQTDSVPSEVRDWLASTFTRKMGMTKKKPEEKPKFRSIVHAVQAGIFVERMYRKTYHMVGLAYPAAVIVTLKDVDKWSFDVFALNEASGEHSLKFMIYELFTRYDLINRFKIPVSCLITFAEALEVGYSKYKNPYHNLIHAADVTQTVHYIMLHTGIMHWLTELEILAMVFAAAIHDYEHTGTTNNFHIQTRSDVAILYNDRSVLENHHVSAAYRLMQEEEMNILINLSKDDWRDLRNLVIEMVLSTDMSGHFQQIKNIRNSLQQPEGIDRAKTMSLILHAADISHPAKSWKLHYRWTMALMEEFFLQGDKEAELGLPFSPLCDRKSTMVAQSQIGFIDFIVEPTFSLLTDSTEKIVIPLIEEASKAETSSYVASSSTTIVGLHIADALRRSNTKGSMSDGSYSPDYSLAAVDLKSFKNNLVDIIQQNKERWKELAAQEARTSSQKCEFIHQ
Chain of Dual specificity calcium/calmodulin-dependent 3',5'-cyclic nucleotide phosphodiesterase 1B (Q01064 whole entry, the tested form may be a part): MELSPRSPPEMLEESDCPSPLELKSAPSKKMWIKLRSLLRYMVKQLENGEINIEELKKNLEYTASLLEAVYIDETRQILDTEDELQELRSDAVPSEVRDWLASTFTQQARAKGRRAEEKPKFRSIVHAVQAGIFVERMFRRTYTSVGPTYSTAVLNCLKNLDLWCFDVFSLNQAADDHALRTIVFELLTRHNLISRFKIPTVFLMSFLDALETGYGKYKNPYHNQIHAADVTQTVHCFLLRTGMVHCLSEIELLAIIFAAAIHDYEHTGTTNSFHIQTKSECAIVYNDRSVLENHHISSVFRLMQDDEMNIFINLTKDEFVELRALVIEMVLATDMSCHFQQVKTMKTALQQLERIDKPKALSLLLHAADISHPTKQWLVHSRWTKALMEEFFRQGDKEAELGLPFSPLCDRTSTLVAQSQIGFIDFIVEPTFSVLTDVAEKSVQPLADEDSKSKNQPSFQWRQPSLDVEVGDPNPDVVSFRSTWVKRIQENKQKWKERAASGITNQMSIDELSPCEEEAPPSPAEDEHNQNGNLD
Chain of 3',5'-cyclic-AMP phosphodiesterase 4D (Q08499 whole entry, the tested form may be a part): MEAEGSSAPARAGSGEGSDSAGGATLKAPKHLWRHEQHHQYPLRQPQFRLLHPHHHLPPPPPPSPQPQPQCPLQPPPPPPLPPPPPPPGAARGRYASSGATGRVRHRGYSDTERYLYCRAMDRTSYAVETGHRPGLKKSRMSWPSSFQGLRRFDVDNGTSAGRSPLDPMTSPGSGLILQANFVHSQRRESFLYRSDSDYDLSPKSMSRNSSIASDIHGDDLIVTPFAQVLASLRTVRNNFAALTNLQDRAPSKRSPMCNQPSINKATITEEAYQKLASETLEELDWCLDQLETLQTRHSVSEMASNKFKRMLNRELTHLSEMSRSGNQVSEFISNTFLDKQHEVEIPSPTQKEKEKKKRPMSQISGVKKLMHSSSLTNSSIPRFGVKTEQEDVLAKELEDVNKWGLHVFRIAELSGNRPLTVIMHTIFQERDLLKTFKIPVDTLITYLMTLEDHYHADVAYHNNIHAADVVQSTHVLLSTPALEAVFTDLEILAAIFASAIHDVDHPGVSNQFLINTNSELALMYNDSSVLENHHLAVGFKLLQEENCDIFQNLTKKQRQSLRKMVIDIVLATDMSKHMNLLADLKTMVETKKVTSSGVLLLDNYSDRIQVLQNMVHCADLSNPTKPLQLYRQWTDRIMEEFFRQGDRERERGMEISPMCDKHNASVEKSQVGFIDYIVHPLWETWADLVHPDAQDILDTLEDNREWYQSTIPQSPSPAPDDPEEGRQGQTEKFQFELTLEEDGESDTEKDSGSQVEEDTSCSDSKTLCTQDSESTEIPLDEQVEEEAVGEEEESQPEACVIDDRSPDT

For orientation: IC50 means the concentration that inhibits the measured activity by half. A word on the clearance: it is the rate of elimination divided by the concentration. Read a high clearance as efficient removal. Usually inhibition stands for the relative decrease from the control value, in per cent. Higher therefore signals a strong effect. For the molecule `CC1=C(C(=O)O[C@H](C)c2ccccc2)C(c2ccc3c(cnn3C)c2)C(C(=O)O[C@H](C)c2ccccc2)=C(C)N1`, the outcome in the series on Rattus norvegicus [1], in the series with Rattus norvegicus [8], in the series with Rattus norvegicus [9], with Rattus norvegicus [10], in the series with Rattus norvegicus [11] and with Rattus norvegicus [12] was Active. The outcome in the series on HLF and in the series with Rattus norvegicus [13] was Active. For the same molecule, the IC50 was 0.948 µM in [2]; 0.145 µM in [3]; 0.354 µM in [4]; more than 10 µM in series [5]; more than 10 µM in series [6]; 4.6 µM at Cytochrome P450 2C9. In series [7], this molecule registered a clearance of 18.4 mL/min/kg. In addition, the inhibition in series [14] and in [15] was less than 50% in each case.
